From PubChem BioAssay (NCI)
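In this assay, cells in 96-well plates receive the compound at five concentrations for 48 hours. Endpoints are linearly interpolated between the surrounding concentrations. The concentration for full growth arrest is given as TGI.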

Legend:
Experiment in all cases: NCI-60 cell line screen, 48 h
CAKI-1 renal = system: CAKI-1 renal
HOP-62 NSCLC = system: HOP-62 NSCLC
MOLT-4 leukemia = system: MOLT-4 leukemia
OVCAR-4 ovarian = system: OVCAR-4 ovarian
OVCAR-5 ovarian = system: OVCAR-5 ovarian
SK-MEL-2 melanoma = system: SK-MEL-2 melanoma
SN12C renal = system: SN12C renal
SW-620 colon = system: SW-620 colon
UACC-257 melanoma = system: UACC-257 melanoma
UACC-62 melanoma = system: UACC-62 melanoma
UO-31 renal = system: UO-31 renal
EKVX NSCLC = system: EKVX NSCLC
IGROV1 ovarian = system: IGROV1 ovarian
MCF7 breast = system: MCF7 breast
MDA-MB-231 breast = system: MDA-MB-231 breast
SF-295 CNS = system: SF-295 CNS
MDA-N = system: MDA-N

Structure (SMILES)	TGI (CAKI-1 renal) [µM]	TGI (HOP-62 NSCLC) [µM]	TGI (MOLT-4 leukemia) [µM]	TGI (OVCAR-4 ovarian) [µM]	TGI (OVCAR-5 ovarian) [µM]	TGI (SK-MEL-2 melanoma) [µM]	TGI (SN12C renal) [µM]	TGI (SW-620 colon) [µM]	TGI (UACC-257 melanoma) [µM]	TGI (UACC-62 melanoma) [µM]	TGI (UO-31 renal) [µM]	TGI (EKVX NSCLC) [µM]	TGI (IGROV1 ovarian) [µM]	TGI (MCF7 breast) [µM]	TGI (MDA-MB-231 breast) [µM]	TGI (SF-295 CNS) [µM]	TGI (MDA-N) [µM]
COc1ccccc1-n1c(N)c2c(C)c(-c3ccccc3)[nH]c2nc1=S	> 100	> 100	> 100	> 100	> 100	> 100	> 100	> 100	> 100	> 100	> 100	–	–	–	–	–	–
CC1(C)S[C@H](CN)N[C@H]1C(=O)OC(c1ccccc1)c1ccccc1	> 100	> 100	74.9	> 100	> 100	93.3	> 100	> 100	40.5	81.4	92.6	> 100	> 100	> 100	> 100	> 100	–
CCOC(=O)c1sc2c(c1O)c(=O)n(-c1ccccc1)c(=S)n2-c1ccccc1	–	–	–	> 100	> 100	> 100	> 100	> 100	> 100	> 100	> 100	–	> 100	> 100	> 100	> 100	> 100
CC1(C)OCN(c2ccc(S(N)(=O)=O)cc2)Cn2c1nc1ccccc12	–	> 100	> 100	> 100	–	> 100	> 100	> 100	> 100	> 100	> 100	> 100	> 100	–	–	> 100	–
COc1cc(OC)c2c(=O)c3c([N+](=O)[O-])cccc3n(C)c2c1	> 100	> 100	> 100	> 100	> 100	> 100	> 100	> 100	> 100	> 100	> 100	> 100	> 100	–	–	> 100	–
C/C(=N\NC(=S)NC(CCC(=O)O)C(=O)O)c1cnccn1 (stereo not given)	–	> 100	> 100	> 100	> 100	> 100	> 100	> 100	> 100	> 100	> 100	> 100	> 100	–	–	> 100	–
COC(=O)C1=C(OC(=O)/C=C/c2ccc(Cl)cc2)C(C(=O)OC)[C@]2(O)[C@@H](C(=O)OC)[C@H]1C[C@@H](c1ccccc1)[C@@H]2C(=O)OC (stereo not given in full)	> 100	> 100	> 100	> 100	> 100	> 27.9	> 29.5	> 100	> 100	> 100	> 30.9	53.2	> 25.9	–	> 65.9	> 100	> 23.1
CCN(CC)CCCNc1ccc([N+](=O)[O-])c2nc3ccc(OC)cc3c(N)c12	> 10	> 10	3.86	4.41	> 10	> 10	3.64	3.11	> 10	> 10	> 10	> 10	> 5.08	> 6.17	3.29	3.64	–
COC(=O)n1c(C)c(C=O)c2ccc(OC)cc21	87.9	60.8	> 100	> 100	> 100	> 100	> 100	–	> 100	57.1	> 100	> 100	> 100	88.2	> 100	69.6	–
O=C(Cn1c(=O)oc2ccc(C(=O)c3ccc(F)cc3)cc21)c1ccccc1	> 100	> 100	> 100	> 100	> 100	> 100	> 100	> 100	> 100	> 100	> 100	–	> 100	> 100	> 100	–	> 100
CCOc1ccc(/C=C(\Cl)c2ccc(OC)cc2)cc1	–	> 100	> 100	> 100	–	–	> 100	> 100	> 100	> 100	> 100	> 100	> 100	–	–	> 100	–
CC1(C(=O)O)C[C@](C)(C(=O)OCc2ccccc2)C[C@](C)(C(=O)OCc2ccccc2)C1 (stereo not given in full)	71.2	> 100	67.6	> 100	> 100	39.3	> 100	> 100	> 100	45.4	40.7	75.7	52.7	> 100	–	61.9	> 100
CCOC(=O)[C@@H]1ON2O[C@H](OC3CCCCC3c3ccccc3)C[C@H]3OC(=O)[C@@H]1C32 (stereo not given in full)	> 100	> 100	> 100	–	> 100	–	> 100	> 100	> 100	> 100	> 100	> 100	> 100	> 100	> 100	> 100	> 100
COc1cc(C2c3cc4c(cc3OC(NCCc3ccccc3)C2C)OCO4)cc(OC)c1OC (stereo not given)	0.939	> 70.3	> 37.7	> 47.7	> 100	> 42.1	> 65.3	> 100	> 85.5	35.3	22.8	> 94	27	15.4	1.02	1.98	–
O=C(Cc1ccc([N+](=O)[O-])c([N+](=O)[O-])c1CC(=O)C(=O)Nc1cc(Cl)ccc1Cl)C(=O)Nc1cc(Cl)ccc1Cl	> 100	> 100	> 100	> 100	> 100	> 100	> 100	> 100	> 100	> 100	> 100	> 100	> 100	–	–	> 100	–
CSC1=C(C(=O)Nc2ccc(C)cc2)C(N)=NC1=O	> 100	–	> 100	> 100	–	–	–	> 100	> 100	> 100	> 100	> 100	> 100	> 100	> 100	> 100	–
